Reference: PMC8286348 (Biochemical and biophysical research communications, 2021)
Read-outs that look alike come from different tables or passages of the source.

Columns and labels:
[1] = compared to 1; cited from earlier work
PR dimerization = conditions: relative to 1; cited from earlier work
PR^S17 [2] = assay: Kinetic inhibition; format: biochemical, HIV-1; conditions: read-out: Ki for PR^S17; FRET-substrate (BACHEM H-2992), 37°C, pH 5.6
PR^S17 [3] = conditions: read-out: Ki for PR^S17; clinical inhibitors; cited from earlier work
HIV-1 protease (PR) = conditions: cited from earlier work
HIV-1 = conditions: read-out: antiviral IC50; MTT assay; cited from earlier work

Molecule	CNS penetration in vitro [1]	fold better inhibition of PR dimerization than 1 (PR dimerization)	Ki (PR^S17 [2]) [nM]	Ki (PR^S17 [3]) [nM]	Ki (HIV-1 protease (PR)) [nM]	IC50 (HIV-1) [nM]
CC(C)CN(C[C@@H](O)[C@H](Cc1cc(F)cc(F)c1)NC(=O)O[C@H]1C2COC3OCC1C3C2)S(=O)(=O)c1ccc2nc(NC3CC3)sc2c1 (stereo partly shown) [Compound 3, GRL-142]	better CNS penetration in vitro compared to 1	around 1000 fold	17 ± 1.3			
CC(C)CN(C[C@@H](O)[C@H](Cc1ccccc1)NC(=O)O[C@H]1CCOC1)S(=O)(=O)c1ccc(N)cc1 [amprenavir]				11		
GRL-4410 [Compound 2]			15.8 ± 4.8		0.0029	2.4
